Values quoted from earlier work, collected in patent US20050079222A1, “Production of nanoparticles from methyl vinyl ether and maleic anhydride for the administration of hydrophilic pharmaceuticals, more particularly of puric and pyrimidinic bases” (priority 2001, published 2005).

Tested on: tumors
Settings: versus 5-fluorouracile

O=c1[nH]c(=O)n([C@@H]2O[C@H](CO)[C@@H](O)[C@H]2O)cc1F [5-fluorouridine, 2,4-dioxo-5-fluoropyrimidine riboside]
antitumoral activity, times more potent than 5-fluorouracile and other derivatives: 100 times
